ChEMBL document CHEMBL1201862, “PubChem BioAssay data set” (2004)
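Dose response: 5 concentrations. Exposure: 48 h. Format: 96-well plates. Endpoint: linear interpolation; highest concentration if not reached. At the GI50, growth is halved.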 The source made the active and inactive calls. Cut-off read from the data, not from the text of the source: active = GI50 up to about 1.1 µM and inactive = higher.

Columns and labels:
Test in all cases: NCI tumour cell line growth inhibition, 48 h
[1] = test system: 786-0
[2] = test system: A498
[3] = test system: A549
[4] = test system: ACHN
[5] = test system: CAKI-1
[6] = test system: CCRF-CEM
[7] = test system: COLO 205
[8] = test system: DU-145
[9] = test system: EKVX
[10] = test system: HCC 2998
[11] = test system: HCT-116
[12] = test system: HCT-15
[13] = test system: HL-60
[14] = test system: HOP-62
[15] = test system: HOP-92
[16] = test system: HT-29
[17] = test system: Hs-578T
[18] = test system: IGROV-1
[19] = test system: K562
[20] = test system: KM12
[21] = test system: LOX IMVI
[22] = test system: M14
[23] = test system: MCF7
[24] = test system: MDA-MB-231
[25] = test system: MDA-MB-435
[26] = test system: MDA-N
[27] = test system: MOLT-4
[28] = test system: Malme-3M
[29] = test system: NCI-H226
[30] = test system: NCI-H23
[31] = test system: NCI-H460
[32] = test system: NCI-H522
[33] = test system: NCI/ADR-RES
[34] = test system: OVCAR-3
[35] = test system: OVCAR-4
[36] = test system: OVCAR-5
[37] = test system: OVCAR-8
[38] = test system: PC-3
[39] = test system: RPMI-8226
[40] = test system: RXF 393
[41] = test system: SF-268
[42] = test system: SF-295
[43] = test system: SF-539
[44] = test system: SK-MEL-28
[45] = test system: SK-MEL-2
[46] = test system: SK-MEL-5
[47] = test system: SK-OV-3
[48] = test system: SN12C
[49] = test system: SNB-19
[50] = test system: SW-620
[51] = test system: T47D
[52] = test system: TK-10
[53] = test system: U-251
[54] = test system: UACC-257
[55] = test system: UACC-62
[56] = test system: UO-31

O=c1[nH]nc(-c2ccccc2)n1/N=C/c1c[nH]c2ccccc12
GI50 [1]: 56.2 µM (inactive) | GI50 [2]: > 100 µM (inactive) | GI50 [3]: > 100 µM (inactive) | GI50 [4]: > 100 µM (inactive) | GI50 [5]: > 100 µM (inactive) | GI50 [6]: > 100 µM (inactive) | GI50 [7]: > 100 µM (inactive) | GI50 [8]: > 100 µM (inactive) | GI50 [9]: > 100 µM (inactive) | GI50 [10]: > 100 µM (inactive) | GI50 [11]: 42.9 µM (inactive) | GI50 [12]: > 100 µM | GI50 [13]: > 100 µM (inactive) | GI50 [14]: > 100 µM (inactive) | GI50 [15]: > 100 µM (inactive) | GI50 [16]: 41 µM (inactive) | GI50 [17]: > 100 µM (inactive) | GI50 [18]: 69.5 µM (inactive) | GI50 [19]: > 100 µM (inactive) | GI50 [20]: 5 µM (inactive) | GI50 [21]: 58.7 µM (inactive) | GI50 [22]: > 100 µM (inactive) | GI50 [23]: > 100 µM (inactive) | GI50 [24]: > 100 µM (inactive) | GI50 [25]: 77.1 µM (inactive) | GI50 [26]: > 100 µM (inactive) | GI50 [27]: > 100 µM (inactive) | GI50 [28]: > 100 µM (inactive) | GI50 [29]: > 100 µM (inactive) | GI50 [30]: > 100 µM (inactive) | GI50 [31]: > 100 µM (inactive) | GI50 [32]: > 100 µM (inactive) | GI50 [33]: > 100 µM (inactive) | GI50 [34]: > 100 µM (inactive) | GI50 [35]: > 100 µM (inactive) | GI50 [36]: > 100 µM (inactive) | GI50 [37]: 32.7 µM (inactive) | GI50 [38]: > 100 µM (inactive) | GI50 [39]: > 100 µM (inactive) | GI50 [40]: 98.4 µM (inactive) | GI50 [41]: 74.6 µM (inactive) | GI50 [42]: > 100 µM (inactive) | GI50 [43]: > 100 µM (inactive) | GI50 [44]: > 100 µM (inactive) | GI50 [45]: > 100 µM (inactive) | GI50 [46]: > 100 µM (inactive) | GI50 [47]: > 100 µM (inactive) | GI50 [48]: > 100 µM (inactive) | GI50 [49]: > 100 µM (inactive) | GI50 [50]: > 100 µM (inactive) | GI50 [51]: > 100 µM (inactive) | GI50 [52]: 17.6 µM (inactive) | GI50 [53]: > 100 µM (inactive) | GI50 [54]: > 100 µM (inactive) | GI50 [55]: 96.8 µM (inactive) | GI50 [56]: > 100 µM (inactive)
